Patent US6525001B1, “Substituted pyrimidine and pyridine herbicides” (Mid-American Commercialization Corporation, priority 1997, dated 2003)

Assays:
Assay type in all cases: in vivo
Design in all cases: key: 0 is no effect; 10 is complete control
[1] = tested on: blackgrass (Alopecurus myosuroides); test: Test B pre-/postemergence
Procedure, shortened: (§1)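 Response scores run from 0, meaning no effect, to 10, meaning complete control, assigned by eye relative to controls twelve to sixteen days after spraying. Treatment was both preemergence on planted seed and postemergence on plants at the 1- to 4-leaf stage.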

[2] = tested on: pigweed (Amaranthus retroflexus); test: Test B pre-/postemergence
Procedure, shortened: as §1

[3] = tested on: wheat (Triticum aestivum); test: Test B pre-/postemergence
Procedure, shortened: as §1

[4] = tested on: velvetleaf (Abutilon theophrasti); test: Test B pre-/postemergence
Procedure, shortened: as §1

[5] = tested on: cocklebur (Xanthium strumarium); test: Test B pre-/postemergence; settings: Preemergence
Procedure, shortened: as §1

[6] = tested on: broadleaf signalgrass (Brachiaria decumbens); test: Test B pre-/postemergence
Procedure, shortened: as §1

[7] = tested on: rape (Brassica napus); test: Test B pre-/postemergence
Procedure, shortened: as §1

[8] = tested on: soybean (Glycine max); test: Test B pre-/postemergence
Procedure, shortened: as §1

[9] = tested on: sugar beet (Beta vulgaris); test: Test B pre-/postemergence
Procedure, shortened: as §1

[10] = tested on: crabgrass (Digitaria sanguinalis); test: Test B pre-/postemergence
Procedure, shortened: as §1

[11] = tested on: purple nutsedge (Cyperus rotundus); test: Test B pre-/postemergence
Procedure, shortened: as §1

[12] = tested on: corn (Zea mays); test: Test B pre-/postemergence
Procedure, shortened: as §1

[13] = tested on: wild oat (Avena fatua); test: Test B pre-/postemergence
Procedure, shortened: as §1

[14] = tested on: bedstraw (Galium aparine); test: Test B pre-/postemergence
Procedure, shortened: as §1

[15] = tested on: momingglory (Ipomoea hederacea); test: Test B pre-/postemergence
Procedure, shortened: as §1

[16] = tested on: giant foxtail (Setaria faberii); test: Test B pre-/postemergence
Procedure, shortened: as §1

[17] = tested on: duck salad (Heteranthera limosa); test: Test B flood test
Procedure, shortened: (§2)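 Each value is a visual injury score relative to controls, with 10 meaning complete control and 0 no effect. Evaluation took place twelve to sixteen days after the 2-leaf-stage plants were treated and kept in the greenhouse.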

[18] = tested on: bamyardgrass (Echinochloa crus-galli); test: Test B flood test
Procedure, shortened: as §2

[19] = tested on: smallflower flatsedge (Cyperus difformis); test: Test B flood test
Procedure, shortened: as §2

[20] = tested on: rice (Oryza sativa); test: Test B flood test
Procedure, shortened: as §2

[21] = Rate 125 g/ha, Postemergence, flood test
[22] = Rate 250 g/ha, Postemergence (flood test species)
[23] = Rate 500 g/ha, Postemergence (flood test species)

Cc1cnc(-c2ccccc2)nc1Cn1ccc(C(F)(F)F)n1 [Compound 7]
4: Plant response rating, S. Flatsedge [19, 23]
5: Plant response rating, Rape ([7]; Rate 125 g/ha, Postemergence) | Plant response rating, Soybean ([8]; Rate 500 g/ha, Postemergence) | Plant response rating, Morningglory ([15]; Rate 500 g/ha, Postemergence) | Plant response rating, Giant foxtail ([16]; Rate 500 g/ha, Preemergence)
7: Plant response rating, Redroot pigweed ([2]; Rate 250 g/ha, Postemergence) | Plant response rating, Redroot pigweed ([2]; Rate 500 g/ha, Postemergence) | Plant response rating, Rape ([7]; Rate 500 g/ha, Postemergence)
8: Plant response rating, Sugarbeets ([9]; Rate 250 g/ha, Postemergence) | Plant response rating, Sugarbeets ([9]; Rate 500 g/ha, Postemergence)
1: Plant response rating, Blackgrass ([1]; Rate 500 g/ha, Postemergence) | Plant response rating, Velvetleaf ([4]; Rate 125 g/ha, Postemergence) | Plant response rating, Velvetleaf ([4]; Rate 250 g/ha, Postemergence) | Plant response rating, B. signalgrass ([6]; Rate 125 g/ha, Postemergence) | Plant response rating, B. signalgrass ([6]; Rate 250 g/ha, Postemergence) | Plant response rating, B. signalgrass ([6]; Rate 500 g/ha, Postemergence) | Plant response rating, Sugarbeets ([9]; Rate 500 g/ha, Preemergence) | Plant response rating, Crabgrass ([10]; Rate 250 g/ha, Preemergence) | Plant response rating, Corn ([12]; Rate 125 g/ha, Postemergence) | Plant response rating, Morningglory ([15]; Rate 125 g/ha, Postemergence) | Plant response rating, Giant foxtail ([16]; Rate 125 g/ha, Postemergence) | Plant response rating, Giant foxtail ([16]; Rate 250 g/ha, Postemergence) | Plant response rating, Giant foxtail ([16]; Rate 250 g/ha, Preemergence) | Plant response rating, Giant foxtail ([16]; Rate 500 g/ha, Postemergence) | Plant response rating, Barnyardgrass [18, 21] | Plant response rating, Barnyardgrass [18, 22] | Plant response rating, S. Flatsedge [19, 21]
2: Plant response rating, Redroot pigweed ([2]; Rate 250 g/ha, Preemergence) | Plant response rating, Redroot pigweed ([2]; Rate 500 g/ha, Preemergence) | Plant response rating, Velvetleaf ([4]; Rate 500 g/ha, Postemergence) | Plant response rating, Crabgrass ([10]; Rate 250 g/ha, Postemergence) | Plant response rating, Crabgrass ([10]; Rate 500 g/ha, Postemergence) | Plant response rating, Crabgrass ([10]; Rate 500 g/ha, Preemergence) | Plant response rating, Corn ([12]; Rate 250 g/ha, Postemergence) | Plant response rating, Corn ([12]; Rate 500 g/ha, Postemergence) | Plant response rating, Morningglory ([15]; Rate 250 g/ha, Postemergence) | Plant response rating, Ducksalad [17, 23] | Plant response rating, Barnyardgrass [18, 23] | Plant response rating, S. Flatsedge [19, 22]
0: Plant response rating, Blackgrass ([1]; Rate 125 g/ha, Postemergence) | Blackgrass plant response rating ([1]; Rate 125 g/ha, Preemergence) | Plant response rating, Blackgrass ([1]; Rate 250 g/ha, Preemergence) | Plant response rating, Blackgrass ([1]; Rate 500 g/ha, Preemergence) | Redroot pigweed plant response rating ([2]; Rate 125 g/ha, Preemergence) | Plant response rating, Wheat ([3]; Rate 125 g/ha, Postemergence) | Wheat plant response rating ([3]; Rate 125 g/ha, Preemergence) | Plant response rating, Wheat ([3]; Rate 250 g/ha, Postemergence) | Plant response rating, Wheat ([3]; Rate 250 g/ha, Preemergence) | Plant response rating, Wheat ([3]; Rate 500 g/ha, Postemergence) | Plant response rating, Wheat ([3]; Rate 500 g/ha, Preemergence) | Velvetleaf plant response rating ([4]; Rate 125 g/ha, Preemergence) | Plant response rating, Velvetleaf ([4]; Rate 250 g/ha, Preemergence) | Plant response rating, Velvetleaf ([4]; Rate 500 g/ha, Preemergence) | Cocklebur plant response rating ([5]; Rate 125 g/ha) | Plant response rating, Cocklebur ([5]; Rate 250 g/ha) | Plant response rating, Cocklebur ([5]; Rate 500 g/ha) | B. signalgrass plant response rating ([6]; Rate 125 g/ha, Preemergence) | Plant response rating, B. signalgrass ([6]; Rate 250 g/ha, Preemergence) | Plant response rating, B. signalgrass ([6]; Rate 500 g/ha, Preemergence) | Rape plant response rating ([7]; Rate 125 g/ha, Preemergence) | Plant response rating, Rape ([7]; Rate 250 g/ha, Preemergence) | Plant response rating, Rape ([7]; Rate 500 g/ha, Preemergence) | Soybean plant response rating ([8]; Rate 125 g/ha, Preemergence) | Plant response rating, Soybean ([8]; Rate 250 g/ha, Preemergence) | Plant response rating, Soybean ([8]; Rate 500 g/ha, Preemergence) | Sugarbeets plant response rating ([9]; Rate 125 g/ha, Preemergence) | Plant response rating, Sugarbeets ([9]; Rate 250 g/ha, Preemergence) | Plant response rating, Crabgrass ([10]; Rate 125 g/ha, Postemergence) | Crabgrass plant response rating ([10]; Rate 125 g/ha, Preemergence) | Plant response rating, Nutsedge ([11]; Rate 125 g/ha, Postemergence) | Nutsedge plant response rating ([11]; Rate 125 g/ha, Preemergence) | Plant response rating, Nutsedge ([11]; Rate 250 g/ha, Postemergence) | Plant response rating, Nutsedge ([11]; Rate 250 g/ha, Preemergence) | Plant response rating, Nutsedge ([11]; Rate 500 g/ha, Postemergence) | Plant response rating, Nutsedge ([11]; Rate 500 g/ha, Preemergence) | Corn plant response rating ([12]; Rate 125 g/ha, Preemergence) | Plant response rating, Corn ([12]; Rate 250 g/ha, Preemergence) | Plant response rating, Corn ([12]; Rate 500 g/ha, Preemergence) | Plant response rating, Wild oats ([13]; Rate 125 g/ha, Postemergence) | Wild oats plant response rating ([13]; Rate 125 g/ha, Preemergence) | Plant response rating, Wild oats ([13]; Rate 250 g/ha, Postemergence) | Plant response rating, Wild oats ([13]; Rate 250 g/ha, Preemergence) | Plant response rating, Wild oats ([13]; Rate 500 g/ha, Postemergence) | Plant response rating, Wild oats ([13]; Rate 500 g/ha, Preemergence) | Bedstraw plant response rating ([14]; Rate 125 g/ha, Preemergence) | Plant response rating, Bedstraw ([14]; Rate 250 g/ha, Preemergence) | Plant response rating, Bedstraw ([14]; Rate 500 g/ha, Preemergence) | Morningglory plant response rating ([15]; Rate 125 g/ha, Preemergence) | Plant response rating, Morningglory ([15]; Rate 250 g/ha, Preemergence) | Plant response rating, Morningglory ([15]; Rate 500 g/ha, Preemergence) | Giant foxtail plant response rating ([16]; Rate 125 g/ha, Preemergence) | Plant response rating, Ducksalad [17, 21] | Plant response rating, Ducksalad [17, 22] | Plant response rating, Rice [20, 21] | Plant response rating, Rice [20, 22] | Plant response rating, Rice [20, 23]
3: Plant response rating, Redroot pigweed ([2]; Rate 125 g/ha, Postemergence) | Plant response rating, Soybean ([8]; Rate 125 g/ha, Postemergence) | Plant response rating, Soybean ([8]; Rate 250 g/ha, Postemergence) | Plant response rating, Sugarbeets ([9]; Rate 125 g/ha, Postemergence) | Plant response rating, Bedstraw ([14]; Rate 125 g/ha, Postemergence) | Plant response rating, Bedstraw ([14]; Rate 250 g/ha, Postemergence) | Plant response rating, Bedstraw ([14]; Rate 500 g/ha, Postemergence)
6: Plant response rating, Rape ([7]; Rate 250 g/ha, Postemergence)
